Where two headings read alike, the source gives them in different places. Peptide text beside a SMILES is read from it. * marks the point of attachment. X1 = CCCCCCCCCCCCCCCC(=O)OCC(C*)OC(=O)CCCCCCCCCCCCCCC; Palmitoyl = CCCCCCCCCCCCCCCC(=O)*
Tests used:
mouse macrophages [1] = assay: stimulated release of TNF-α from mouse macrophages; type: cell-based; details: read-out: EC50, stimulated release of TNF-α
mouse macrophages [2] = assay: cell growth inhibition; type: cell-based; details: read-out: IC50, cell growth inhibition
TLR1 and TLR2 = TLR1 and TLR2 (Mus musculus, UniProt Q9EPQ1+Q9QUN7); type: cell-based; details: 500 nM, macrophages from mutant or knockout mice
TLR1 and TLR2, sequence (Q9EPQ1 26-795): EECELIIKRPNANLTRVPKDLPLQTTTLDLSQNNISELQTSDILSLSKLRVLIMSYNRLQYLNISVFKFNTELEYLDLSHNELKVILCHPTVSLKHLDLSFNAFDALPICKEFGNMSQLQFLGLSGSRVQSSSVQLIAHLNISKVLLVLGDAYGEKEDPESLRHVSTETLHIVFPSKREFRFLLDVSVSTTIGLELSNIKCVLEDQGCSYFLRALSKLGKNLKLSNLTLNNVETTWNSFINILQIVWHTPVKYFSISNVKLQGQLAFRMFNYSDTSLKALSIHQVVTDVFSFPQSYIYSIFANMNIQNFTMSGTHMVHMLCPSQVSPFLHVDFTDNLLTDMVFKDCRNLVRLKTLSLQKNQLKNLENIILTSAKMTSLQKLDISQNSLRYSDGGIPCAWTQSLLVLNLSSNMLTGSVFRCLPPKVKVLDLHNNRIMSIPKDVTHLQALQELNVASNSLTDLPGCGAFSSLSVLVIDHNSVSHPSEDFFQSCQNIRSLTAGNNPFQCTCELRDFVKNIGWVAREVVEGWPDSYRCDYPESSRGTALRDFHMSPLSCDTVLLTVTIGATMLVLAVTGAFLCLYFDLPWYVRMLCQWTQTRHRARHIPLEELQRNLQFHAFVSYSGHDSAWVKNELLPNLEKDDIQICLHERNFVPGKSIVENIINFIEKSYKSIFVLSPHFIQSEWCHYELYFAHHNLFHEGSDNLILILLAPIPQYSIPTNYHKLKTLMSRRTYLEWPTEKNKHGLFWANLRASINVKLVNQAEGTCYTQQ
TLR1 and TLR2, sequence (Q9QUN7 25-784): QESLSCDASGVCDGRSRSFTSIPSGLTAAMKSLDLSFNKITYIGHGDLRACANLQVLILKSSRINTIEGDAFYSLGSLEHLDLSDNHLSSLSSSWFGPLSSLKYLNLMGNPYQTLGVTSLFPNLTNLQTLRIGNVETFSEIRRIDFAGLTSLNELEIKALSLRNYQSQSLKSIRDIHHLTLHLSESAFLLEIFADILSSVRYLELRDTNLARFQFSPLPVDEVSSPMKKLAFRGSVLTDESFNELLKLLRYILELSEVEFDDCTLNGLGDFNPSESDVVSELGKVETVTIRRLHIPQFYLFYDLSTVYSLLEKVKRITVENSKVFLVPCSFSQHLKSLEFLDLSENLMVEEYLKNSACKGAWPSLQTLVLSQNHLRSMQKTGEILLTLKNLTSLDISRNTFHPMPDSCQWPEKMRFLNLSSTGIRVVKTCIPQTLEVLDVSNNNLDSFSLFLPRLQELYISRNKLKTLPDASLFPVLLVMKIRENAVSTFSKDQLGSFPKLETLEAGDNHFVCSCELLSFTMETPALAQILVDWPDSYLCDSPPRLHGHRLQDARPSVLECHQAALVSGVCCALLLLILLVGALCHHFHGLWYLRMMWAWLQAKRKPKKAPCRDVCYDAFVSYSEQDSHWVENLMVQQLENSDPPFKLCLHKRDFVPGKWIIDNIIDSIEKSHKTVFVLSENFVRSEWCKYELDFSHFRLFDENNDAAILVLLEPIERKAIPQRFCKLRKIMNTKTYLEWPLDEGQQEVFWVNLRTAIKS

[3] = tested on: HCT116 human colon cancer; assay: cell growth inhibition; type: cell-based; details: read-out: IC50, cell growth inhibition
[4] = tested on: human foreskin (HFF) fibroblast cells; assay: cell growth inhibition; type: cell-based; details: read-out: IC50, cell growth inhibition
[5] = tested on: differentiated human THP-1 cells; type: cell-based
[6] = tested on: murine melanoma (B16-OVA); details: combination with anti-PD-L1, diprovocim/OVA i.m., cited from earlier work
[7] = tested on: mouse (NIH/3T3) fibroblast cells; assay: cell growth inhibition; type: cell-based; details: read-out: IC50, cell growth inhibition
[8] = tested on: IKKα, IKKβ, p38, JNK, and ERK; details: cited from earlier work
mice = details: cited from earlier work; for adjuvant activity in mice: intramuscular (i.m.) injection with antigen (OVA)
L1210 mouse leukemia = assay: cell growth inhibition; type: cell-based; details: read-out: IC50, cell growth inhibition
B16 mouse melanoma = assay: cell growth inhibition; type: cell-based; details: read-out: IC50, cell growth inhibition
human THP-1 cells = assay: cell growth inhibition; type: cell-based; details: read-out: IC50, cell growth inhibition
[9] = read-out: EC50, stimulated release of TNF-α, differentiated human THP-1 cells

In the case of `O=C(N[C@H]1C[C@@H]1c1ccccc1)[C@@H]1CN(C(=O)c2ccc(C(=O)N3C[C@@H](C(=O)N[C@H]4C[C@@H]4c4ccccc4)[C@H](C(=O)N[C@H]4C[C@@H]4c4ccccc4)C3)cc2)C[C@H]1C(=O)N[C@H]1C[C@@H]1c1ccccc1` [Compound 3], the EC50 (mouse macrophages [1]) is reported as 1.3 nM, the IC50 (mouse macrophages [2]) is reported as > 10000 nM and the “dependence of activity on downstream signaling proteins” value (TLR1 and TLR2) is reported as “dependent on TLR1/TLR2 signaling through MyD88, TIRAP, and IRAK4”. For the same molecule, the IC50 [3] was > 10000 nM, the IC50 [4] was > 10000 nM and the “times more potent than Pam3CSK4” value ([5]; direct side-by-side comparison, human THP-1 cells) was 5–10 times. The “potency differential human THP-1 cells versus mouse macrophages” value ([5]; human versus mouse cell release of TNF-α) was 10 fold, the EC50 [5, 9] was 0.11 nM and the “protection from tumor rechallenge” value [6] was “protected mice from tumor rechallenge”. The “survival of mice implanted with B16-OVA melanoma” value [6] was “cured or prolonged survival of mice”, the “survival of mice implanted with B16-OVA melanoma” value ([6]; listed as diprovocim-1) was “cured or prolonged the survival of mice” and the IC50 [7] was > 10000 nM. The “phosphorylation and activation of IKKα, IKKβ, p38, JNK, and ERK” value [8] was “induce the phosphorylation and activation”, the “adjuvant activity in TLR1 and TLR2 deficient mice” value (mice; i.m. with OVA, TLR1 and TLR2 deficient mice) was “inactive” and the “adjuvant activity in mice” value (mice) was “active as an adjuvant”. For the same molecule, the “adjuvant activity in mice” value (mice; listed as Diprovocim-1) was “acts as an adjuvant”, the IC50 (L1210 mouse leukemia) was > 10000 nM and the IC50 (B16 mouse melanoma) was > 10000 nM. For the same molecule, the IC50 (human THP-1 cells) was > 10000 nM.
In the case of `O=C(NCCc1ccc(F)cc1)[C@@H]1CN(C(=O)c2ccc(C(=O)N3C[C@@H](C(=O)NCCc4ccc(F)cc4)[C@H](C(=O)NCCc4ccc(F)cc4)C3)cc2)C[C@H]1C(=O)NCCc1ccc(F)cc1` [Compound 4], the “fold more potent than the all racemate (69)” value ([5]; human THP-1 cells) is reported as 3 fold and the EC50 [5, 9] is reported as 50 nM.
With `O=C(NCCc1ccc(F)cc1)C1CN(C(=O)c2ccc(C(=O)N3CC(C(=O)NCCc4ccc(F)cc4)C(C(=O)NCCc4ccc(F)cc4)C3)cc2)CC1C(=O)NCCc1ccc(F)cc1` (centres unmarked) [Compound 69] the EC50 [5, 9] was 100 nM.
`CCCCCCCCCCCCCCCC(=O)N[C@@H](CSCC(COC(=O)CCCCCCCCCCCCCCC)OC(=O)CCCCCCCCCCCCCCC)C(=O)N[C@@H](CO)C(=O)N[C@@H](CCCCN)C(=O)N[C@@H](CCCCN)C(=O)N[C@@H](CCCCN)C(=O)N[C@@H](CCCCN)C(=O)O` (some centres unmarked) [Pam3CSK4, reference compound] (Palmitoyl-C(X1)SKKKK-OH; N-terminus and C-terminus assumed) showed an EC50 [5] of 0.91 nM.
